The values that follow come from ChEMBL document CHEMBL5614413, “Design, synthesis and biological evaluation of amphiphilic benzopyran derivatives as potent antibacterial agents against multidrug-resistant bacteria” (Eur J Med Chem, 2024).

Molecules are shown by their SMILES.

The assay relates to Staphylococcus aureus. Briefly: Drug resistance, ratio of MIC for methicillin-resistant Staphylococcus aureus ATCC 43300 after 19 days exposure to MIC for methicillin-resistant Staphylococcus aureus ATCC 43300 during first exposure. The class given is functional. The settings on record: time 19 day.

Consider `CCn1cc(C(=O)O)c(=O)c2cc(F)c(N3CCNCC3)cc21` [NORFLOXACIN], for which the Ratio is listed as 512.
